Target: human BCL6 BTB domain (Trx-6xHis-BCL6) (Homo sapiens (Human), UniProt P41182)
Assay: HTRF in vitro assay (BCL6 BTB domain / BCOR-AF633 peptide)
Assay type: binding
[1] = further generated data (Table 1b), 1 nM Trx-6xHis-BCL6, 0.5 nM anti-6xHis-Terbium cryptate
[2] = initially generated data (Table 1a), 10 nM Trx-6xHis-BCL6, 1 nM anti-6xHis-Terbium cryptate

Method: The % inhibition at each concentration was calculated by normalising FRET ratio to the appropriate high (DMSO with all reagents) and low (DMSO without BCL6) controls.

Row | Compound | HTRF pIC50 [1] | HTRF pIC50 [2] | IC50 (further generated data (Table 1b), 1 nM Trx-6xHis-BCL6, 0.5 nM anti-6xHis-Terbium cryptate, read-out: HTRF pIC50 (converted))
1 | Cc1nnc(C(C)Nc2cc(=O)n(C)c3ccc(Nc4ccnc(Cl)c4C#N)cc23)o1 (stereo not shown) [Example 3l, 2-Chloro-4-((1-methyl-4-((1-(5-methyl-1,3,4-oxadiazol-2-yl)ethyl)amino)-2-oxo-1,2-dihydroquinolin-6-yl)amino)nicotinonitrile] | 5.93 | 6.16 | 
2 | Cn1c(=O)cc(NC2(C)CCCC2)c2cc(Nc3cc(C(=O)O)nc(Cl)c3C#N)ccc21 [Example 2d, 6-chloro-5-cyano-4-[[1-methyl-4-[(1-methylcyclopentyl)amino]-2-oxo-6-quinolyl]amino]pyridine-2-carboxylic acid] | 6.65 | 6.51 | 
3 | CC(Nc1cc(=O)n(C)c2ccc(Nc3nc(N4CCC5(CCCN(C)C5=O)CC4)ncc3Cl)cc12)c1ncccn1 (stereo not shown) [Example 17g, 9-(5-chloro-4-((1-methyl-2-oxo-4((1-(pyrimidin-2-yl)ethyl)amino)-1,2-dihydroquinolin-6-yl)amino)pyrimidin-2-yl)-2-methyl-2,9-diazaspiro[5.5]undecan-1-one] | 6.24 |  | 
4 | Cn1c(=O)cc(NC(C)(C)c2ncccn2)c2cc(Nc3cc(C(=O)N4CC5(CCO5)C4)nc(Cl)c3C#N)ccc21 [Example 8g, 2-chloro-4-((1-methyl-2-oxo-4-((2-(pyrimidin-2-yl)propan-2-yl)amino)-1,2-dihydroquinolin-6-yl)amino)-6-(1-oxa-6-azaspiro[3.3]heptane-6-carbonyl)nicotinonitrile] | 7.82 |  | 
5 | CNC(=O)c1cc(Nc2ccc3c(c2)c(N[C@H]2CCC[C@H]2OC)cc(=O)n3C)c(C#N)c(Cl)n1 (racemic) [Example 19g, rac-6-chloro-5-cyano-4((4-(((1S,2R)-2-methoxycyclopentyl)amino)-1-methyl-2-oxo-1,2-dihydroquinolin-6-yl)amino)-N-methylpicolinamide] |  |  | 0.851 µM
6 | C[C@@H](Nc1cc(=O)n(C)c2ncc(Nc3ccnc(Cl)c3Cl)cc12)C1CC1 [Example 6f, (R)-4-((1-cyclopropylethyl)amino)-6-((2,3-dichloropyridin-4-yl)amino)-1-methyl-1,8-naphthyridin-2(1H)-one] | 6.21 |  | 
7 | CCNc1cc(=O)n(C)c2ccc(Nc3cc(C(=O)NC)nc(Cl)c3C#N)cc12 [Example 5, 6-Chloro-5-cyano-4-[[4-(ethylamino)-1-methyl-2-oxo-6-quinolyl]amino]-N-methyl-pyridine-2-carboxamide] | 6.43 | 6.21 | 
8 | Cn1c(=O)cc(NC(C)(C)C)c2cc(Nc3cc(C(=O)O)nc(Cl)c3C#N)ccc21 [Example 9n, 4-((4-(tert-butylamino)-1-methyl-2-oxo-1,2-dihydroquinolin-6-yl)amino)-6-chloro-5-cyanopicolinic acid] | 6.84 |  | 
9 | Cn1c(=O)cc(NCC2CC2)c2cc(Nc3cc(C(=O)O)nc(Cl)c3C#N)ccc21 [Example 9l, 6-chloro-5-cyano-4-((4-((cyclopropylmethyl)amino)-1-methyl-2-oxo-1,2-dihydroquinolin-6-yl)amino)picolinic acid] | 6.56 |  | 
10 | C#CC1(Nc2cc(=O)n(C)c3ccc(Nc4cc(C(=O)O)nc(Cl)c4C#N)cc23)CC1 [Example 9h, 6-chloro-5-cyano-4-((4-((1-ethynylcyclopropyl)amino)-1-methyl-2-oxo-1,2-dihydroquinolin-6-yl)amino)picolinic acid] | 6.77 |  | 
11 | COCCOCC(C)Nc1cc(=O)n(C)c2ccc(Nc3ccnc(Cl)c3C#N)cc12 (stereo not shown) [Example 11g, 2-chloro-4-((4-((1-(2-methoxyethoxy)propan-2-yl)amino)-1-methyl-2-oxo-1,2-dihydroquinolin-6-yl)amino)nicotinonitrile] | 6.05 |  | 
12 | CCNc1cc(=O)n(C)c2ccc(Nc3cc(C(=O)O)nc(Cl)c3C#N)cc12 [Example 4, 6-Chloro-5-cyano-4-[[4-(ethylamino)-1-methyl-2-oxo-6-quinolyl]amino]pyridine-2-carboxylic acid] | 6.07 | 6.06 | 
13 | CNC(=O)c1cc(Nc2ccc3c(c2)c(NC(C)(C)C)cc(=O)n3C)c(C#N)c(Cl)n1 [Example 7c, 4-((4-(tert-butylamino)-1-methyl-2-oxo-1,2-dihydroquinolin-6-yl)amino)-6-chloro-5-cyano-N-methylpicolinamide] | 6.33 |  | 
14 | CC(Nc1cc(=O)n(CC2CCCCC2)c2ccc(Nc3ccnc(Cl)c3C#N)cc12)c1ncccn1 (stereo not shown) [Example 10v, 2-chloro-4-((1-(cyclohexylmethyl)-2-oxo-4-((1-(pyrimidin-2-yl)ethyl)amino)-1,2-dihydroquinolin-6-yl)amino)nicotinonitrile] | 6.17 |  | 
15 | CC(Nc1cc(=O)n(C)c2ccc(Nc3ccnc(Cl)c3C#N)cc12)c1cnccn1 (stereo not shown) [Example 1j, 2-chloro-4-[[1-methyl-2-oxo-4-(1-pyrazin-2-ylethylamino)-6-quinolyl]amino]pyridine-3-carbonitrile] | 6.29 | 6.27 | 
16 | CC(Nc1cc(=O)n(C)c2ncc(Nc3ccnc(Cl)c3Cl)cc12)c1ncccn1 (stereo not shown) [Example 6e, 6-((2,3-dichloropyridin-4-yl)amino)-1-methyl-4-((1-(pyrimidin-2-yl)ethyl)amino)-1,8-naphthyridin-2(1H)-one] | 6.28 |  | 
17 | Cn1c(=O)cc(N[C@H]2CCOC2)c2cc(Nc3ccnc(Cl)c3C#N)ccc21 [Example 1g, 2-chloro-4-[[1-methyl-2-oxo-4-[[(3S)-tetrahydrofuran-3-yl]amino]-6-quinolyl]amino]pyridine-3-carbonitrile] | 6.13 | 6.10 | 
18 | CC(Nc1cc(=O)n(C)c2ccc(Nc3cc(C(=O)O)nc(Cl)c3C#N)cc12)c1ncc(C2CC2)cn1 (stereo not shown) [Example 9p, 6-chloro-5-cyano-4-((4-((1-(5-cyclopropylpyrimidin-2-yl)ethyl)amino)-1-methyl-2-oxo-1,2-dihydroquinolin-6-yl)amino)picolinic acid] | 7.25 |  | 
19 | CC(Nc1nc(=O)n(C)c2ccc(Nc3nc(N4C[C@H](C)C[C@H](C)C4)ncc3Cl)cc12)c1ncccn1 (stereo partly drawn) [Example 12e, 6-((5-chloro-2-((3R,5S)-3,5-dimethylpiperidin-1-yl)pyrimidin-4-yl)amino)-1-methyl-4-((1-(pyrimidin-2-yl)ethyl)amino)quinazolin-2(1H)-one:formic acid (1:1)] | 6.58 |  | 
20 | CC(Nc1cc(=O)n(Cc2ccccc2)c2ccc(Nc3cc(C(=O)O)nc(Cl)c3C#N)cc12)c1ncccn1 (stereo not shown) [Example 9q, 4-((1-benzyl-2-oxo-4-((1-(pyrimidin-2-yl)ethyl)amino)-1,2-dihydroquinolin-6-yl)amino)-6-chloro-5-cyanopicolinic acid] | 6.81 |  | 
21 | CC(Nc1cc(=O)n(C)c2ccc(Nc3ccnc(Cl)c3C#N)cc12)c1cc[nH]n1 (stereo not shown) [Example 1t, 2-chloro-4-[[1-methyl-2-oxo-4-[1-(1H-pyrazol-3-yl)ethylamino]-6-quinolyl]amino]pyridine-3-carbonitrile] | 5.84 | 6.00 | 
